Assay results from EP1948196B1, “USE OF TETRAORGANOSILICON COMPOUNDS” (Salama, Zoser B., priority 2005, dated 2007).
In brackets after ≈: the same amount, converted by molar mass. Like-named read-outs stand apart in the source and are kept apart here. Numbered stars: 1 amine (or outer) side, 2 acyl side, 3 side chain; on linkers, the order of the positions; unused ones are H or OH. Bridge positions count the residues as written; N and C are the ends. Peptide text beside a SMILES is read from it. I, II: the chains in the order shown. OSiEt2O = CC[Si](CC)(O[*:1])O[*:2]

Legend:
[1] = tested on: Medulloblastome; experiment: Effect on medulloblastomas
[2] = tested on: Plasmozytome
[3] = tested on: BxPC3 (pankreatisches Adenokarzinom); experiment: MTT test, triplicate, two-fold dilutions; type: cell-based; details: Homo sapiens
Experimental: (§1) Die Silan wurden in Ethanol aufgelöst und in Zellkulturmedien in Konzentrationen von bis zu 500 µg/ml resuspendiert. Es wurden MTT Tests in dreifacher Ausführung durchgeführt, für welche doppelte Lösungen (7 Schritte) und colo205 (Kofon-Karzinom), BxPC3 (pankreatisches Adenokarzinom) sowie T47D (Brustkrebs) benutzt wurden.

[4] = tested on: T47D (Brustkrebs); experiment: MTT test, triplicate, two-fold dilutions; type: cell-based; details: Homo sapiens, T47D, read-out: IC50 T47D
Experimental: as §1

[5] = tested on: colo205 (Kofon-Karzinom); experiment: MTT test, triplicate, two-fold dilutions; type: cell-based; details: Homo sapiens
Experimental: as §1

[6] = tested on: A431 Epidermalkarzinom; experiment: MTT assay / EZ4U test, 4 days; type: cell-based; details: Homo sapiens
Experimental: (§2) Die Silane 1, 5, 9, 10, 11, 13, 15, 16 wurden in Ethanol gelöst und in MTT Assays in einer anfänglichen Konzentration von 200 µg/ml (5 Lösungsschritte 200 - 12.5 µg/ml) verwendet. Die Platten wurde für eine Dauer.von 4 Tagen inkubiert und die Entwicklungsfähigkeit mithilfe des EZ4U Test bestimmt. Die IC50 Werte wurden ausgehend von Dosierungs-Reaktions-Linien berechnet Zelllinien: Colo 205 and HT29 - Kolonkarzinom; BxPC3 and MIAPaCa2 - Pankreaskrebs; CRO2B - karzinoid, A431 Epidermalkarzinom; normale Zellen: WI38 - humane embryonale Fibroblasten; NIH3T3 - mausartige Fibroblasten; IEC6 - mausartige Enterozyten.

[7] = tested on: BxPC3 - Pankreaskrebs; experiment: MTT assay / EZ4U test, 4 days; type: cell-based; details: Homo sapiens
Experimental: as §2

[8] = tested on: CRO2B - karzinoid; experiment: MTT assay / EZ4U test, 4 days; type: cell-based; details: read-out: IC50 CR02B
Experimental: as §2

[9] = tested on: Colo 205 - Kolonkarzinom; experiment: MTT assay / EZ4U test, 4 days; type: cell-based; details: Homo sapiens, COLO 205, read-out: IC50 Colo205
Experimental: as §2

[10] = tested on: HT29 - Kolonkarzinom; experiment: MTT assay / EZ4U test, 4 days; type: cell-based; details: Homo sapiens
Experimental: as §2

[11] = tested on: IEC6 - mausartige Enterozyten; experiment: MTT assay / EZ4U test, 4 days; type: cell-based; details: Rattus norvegicus
Experimental: as §2

[12] = tested on: MIAPaCa2 - Pankreaskrebs; experiment: MTT assay / EZ4U test, 4 days; type: cell-based; details: Homo sapiens
Experimental: as §2

[13] = tested on: NIH3T3 - mausartige Fibroblasten; experiment: MTT assay / EZ4U test, 4 days; type: cell-based; details: Mus musculus
Experimental: as §2

[14] = tested on: WI38 - humane embryonale Fibroblasten; experiment: MTT assay / EZ4U test, 4 days; type: cell-based; details: Homo sapiens
Experimental: as §2

[15] = tested on: Krebszellen; experiment: Mean IC50 over all cancer cell lines; type: cell-based; details: read-out: IC50 Krebszellen (Durchschnitt ± SD)
Experimental: as §2
(§3) Mittelwerte-IC50 für alle Krebs- oder normalen Zelllinien: […]

[16] = tested on: Normale Zellen; experiment: Mean IC50 over all normal cell lines; type: cell-based; details: read-out: IC50 Normale Zellen (Durchschnitt ± SD)
Experimental: as §2, §3

[17] = tested on: Colo205 Kolonkarzinom; experiment: subG1 apoptotic fraction, propidium iodide, flow cytometry; type: cell-based; details: 50 µg/ml, 4 Tage
Experimental: (§4) Die Zellen (IEC6 mausartige Enterozyten; Panc1 Pankreaskrebszellen; Colo205 Kolonkarzinom) wurden mit 50 µg/ml Silanen inkubiert und nach 4-tägiger Aussetzung auf DNA eingefärbt (Propidiumiodid). Die SubG1 Zellteilung wurde mittels Durchflusscytometrie bestimmt.

[18] = tested on: IEC6 mausartige Enterozyten; experiment: as above; type: cell-based; details: 50 µg/ml, 4 Tage
Experimental: as §4

[19] = tested on: Panc1 Pankreaskrebszellen; experiment: as above; type: cell-based; details: 50 µg/ml, 4 Tage
Experimental: as §4

[20] = tested on: Maus; experiment: Pharmacological observation in the mouse (central, vegetative and toxic effects, acute toxicity); type: in vivo
Source text: Pharmakologische Untersuchungen an der Maus
Die Verbindungen wurden an der Maus auf zentrale, vegetative und toxische Effekte geprüft. Durch systemische Einzelbeobachtungen sind neben der akuten Toxizität (orienberende letale Dosis, oLD) zentrale und vegetative Wirkungen der Testsubstanzen, insbesondere Effekte auf die Motorik und das Reaktionsvermögen, die Haut- und Rektaltemperatur sowie auf die Pupillenmotorik erfasst worden. Die getesteten Dosierungen betrugen 5 •10^-4, 1 • 10^-3 und 5 • 10^-3 mol/kg Körpergewicht Letale Wirkungen konnten bei keiner der Verbindungen beobachtet werden. Die oLD lag für Di(tetradecanoyloxy)dimethylsilan und Di(octadecanoyloxy)dimethylsilan unter 1 • 10^-3 mol/kg Körpergewicht für alle übrigen Verbindungen unter 5 • 10^-3 mollkg Körpergewicht.

[21] = tested on: Osteosarkome; experiment: Effect on osteosarcomas
[22] = COLO 205, read-out: IC50 Colo205
[23] = MIA PaCa-2, read-out: IC50 MlAPaCa2

| SMILES | Wirkung gegen Medulloblastome [1] | Wirkung auf Plasmozytome [2] | IC50 ([3]; BXPC-3, read-out: IC50 BxPC3) [µg/mL] | IC50 [4] [µg/mL] | IC50 [5, 22] [µg/mL] | IC50 ([6]; A-431, read-out: IC50 A431) [µg/mL] | IC50 ([7]; BXPC-3, read-out: IC50 BxPC3) [µg/mL] | IC50 [8] [µg/mL] | IC50 ([10]; HT-29, read-out: IC50 HT29) [µg/mL] | IC50 ([11]; IEC-6, read-out: IC50 IEC6) [µg/mL] | IC50 [12, 23] [µg/mL] | IC50 ([13]; NIH3T3, read-out: IC50 NIH3T3) [µg/mL] | IC50 ([14]; WI-38, read-out: IC50 WI38) [µg/mL] | IC50 [15] [µg/mL] | IC50 [16] [µg/mL] | subG1 apoptotische Zellteilung Colo205 [17] | subG1 apoptotische Zellteilung IEC6 [18] | subG1 apoptotische Zellteilung Panc1 [19] | other results |
| --- | --- | --- | --- | --- | --- | --- | --- | --- | --- | --- | --- | --- | --- | --- | --- | --- | --- | --- | --- |
| CC[Si](CC)(OC(=O)[C@H](Cc1ccccc1)NC(=O)[C@H](Cc1ccccc1)NC(=O)[C@H](Cc1ccccc1)NC(=O)[C@H](Cc1ccccc1)NC(=O)[C@H](Cc1ccccc1)NC(=O)[C@H](Cc1ccccc1)NC(=O)[C@H](Cc1ccccc1)NC(=O)[C@H](Cc1ccccc1)NC(=O)[C@@H](N)Cc1ccccc1)OC(=O)[C@H](Cc1ccccc1)NC(=O)[C@H](Cc1ccccc1)NC(=O)[C@H](Cc1ccccc1)NC(=O)[C@H](Cc1ccccc1)NC(=O)[C@H](Cc1ccccc1)NC(=O)[C@H](Cc1ccccc1)NC(=O)[C@H](Cc1ccccc1)NC(=O)[C@H](Cc1ccccc1)NC(=O)[C@@H](N)Cc1ccccc1 [Diethyl bis(nonaphenylalanyl)silylester] (I: H-FFFFFFFFF / II: H-FFFFFFFFF; linker I:C-II:C via OSiEt2O) | zeigen eine Wirkung |  |  |  |  |  |  |  |  |  |  |  |  |  |  |  |  |  |  |
| CC[Si](CC)(OC(=O)CNC(=O)CNC(=O)CNC(=O)CN)OC(=O)CNC(=O)CNC(=O)CNC(=O)CN [Diethyl bis(tetraglycyl)silylester] (I: H-GGGG / II: H-GGGG; linker I:C-II:C via OSiEt2O) | zeigen eine Wirkung |  |  |  |  |  |  |  |  |  |  |  |  |  |  |  |  |  |  |
| C[Si](C)(OC(=O)CNC(=O)CNC(=O)CNC(=O)CNC(=O)CNC(=O)CNC(=O)CNC(=O)CNC(=O)CN)OC(=O)CNC(=O)CNC(=O)CNC(=O)CNC(=O)CNC(=O)CNC(=O)CNC(=O)CNC(=O)CN [Dimethyl bis(nonaglycyl)silylester] | zeigen eine Wirkung |  |  |  |  |  |  |  |  |  |  |  |  |  |  |  |  |  |  |
| NCC(=O)NCC(=O)NCC(=O)NCC(=O)O[Si](OC(=O)CNC(=O)CNC(=O)CNC(=O)CN)(c1ccccc1)c1ccccc1 [Diphenyl bis(tetraglycyl)silylester] |  | zeigen eine Wirkung |  |  |  |  |  |  |  |  |  |  |  |  |  |  |  |  |  |
| N[C@@H](Cc1ccccc1)C(=O)N[C@@H](Cc1ccccc1)C(=O)N[C@@H](Cc1ccccc1)C(=O)N[C@@H](Cc1ccccc1)C(=O)O[Si](OC(=O)[C@H](Cc1ccccc1)NC(=O)[C@H](Cc1ccccc1)NC(=O)[C@H](Cc1ccccc1)NC(=O)[C@@H](N)Cc1ccccc1)(c1ccccc1)c1ccccc1 [Diphenyl bis(tetraphenylalanyl)silylester] |  | zeigen eine Wirkung |  |  |  |  |  |  |  |  |  |  |  |  |  |  |  |  |  |
| N[C@@H](Cc1ccccc1)C(=O)N[C@@H](Cc1ccccc1)C(=O)N[C@@H](Cc1ccccc1)C(=O)O[Si](OC(=O)[C@H](Cc1ccccc1)NC(=O)[C@H](Cc1ccccc1)NC(=O)[C@@H](N)Cc1ccccc1)(c1ccccc1)c1ccccc1 [Diphenyl bis(triphenylalanyl)silylester] |  | zeigen eine Wirkung |  |  |  |  |  |  |  |  |  |  |  |  |  |  |  |  |  |
| CCCCCCCCCCCCCCCCC(=O)O[Si](CC)(CC)OC(=O)CCCCCCCCCCCCCCCC [Si1, Di (heptadecanoyloxy) diethylsilan] |  |  | 15 (≈ 24 µM) | 15 (≈ 24 µM) | 125 (≈ 200 µM) | 31.8 (≈ 50.9 µM) | 37 (≈ 59.2 µM) | 22.8 (≈ 36.5 µM) | 41.5 (≈ 66.4 µM) | 28.1 (≈ 45 µM) | 50 (≈ 80 µM) | 36.2 (≈ 57.9 µM) | 26.2 (≈ 41.9 µM) | 33.2 (≈ 53.1 µM) | 30.1 (≈ 48.2 µM) | 3.0 ± 0,14 | 6,55 ± 0,49 | 57,7 ± 0,07 | IC50 [9]: 37 µg/mL (≈ 59.2 µM) |
| CCCCCCCCCCCCCCCC(=O)O[Si](CC)(CC)OC(=O)CCCCCCCCCCCCCCC [Si11, Di (hexadecanoyloxy) diethylsilan] |  |  | 10 (≈ 16.7 µM) | 7 (≈ 11.7 µM) | 300 (≈ 502 µM) | 21.9 (≈ 36.7 µM) | 20 (≈ 33.5 µM) | 18.9 (≈ 31.7 µM) | 23.1 (≈ 38.7 µM) | 21.2 (≈ 35.5 µM) | 82.5 (≈ 138 µM) | 25 (≈ 41.9 µM) | 23.7 (≈ 39.7 µM) | 21.1 (≈ 35.3 µM) | 23.3 (≈ 39 µM) | 3,3 ± 0,14 | 7.0 ± 0,14 | 37,7 ± 1,8 |  |
| CCCCCCCCCCCCCCCCCC(=O)O[Si](CC)(CC)OC(=O)CCCCCCCCCCCCCCCCC [Si13, Di (octadecanoyloxy) diethylsilan] |  |  | 10 (≈ 15.3 µM) | 8 (≈ 12.2 µM) | 125 (≈ 191 µM) | 15.9 (≈ 24.3 µM) | 17.5 (≈ 26.8 µM) | 17.8 (≈ 27.3 µM) | 18.3 (≈ 28 µM) | 17 (≈ 26 µM) | 110 (≈ 168 µM) | 20.6 (≈ 31.5 µM) | 16.5 (≈ 25.3 µM) | 17.3 (≈ 26.5 µM) | 18 (≈ 27.6 µM) | 4,8 ± 0,49 |  | 36,7 ± 0,5 | IC50 [9]: 47.5 µg/mL (≈ 72.7 µM) |
| CCCCCCCCCCCCCCCC(=O)O[Si](C)(C)OC(=O)CCCCCCCCCCCCCCC [Si16, Di (hexadecanoyloxy) dimethylsilan] |  |  |  |  |  |  |  |  |  |  |  |  |  |  |  | 3,55 ± 0,07 | 2,45±0,21 | 22,2 ± 1,6 | zentrale, vegetative und toxische Effekte (Verhaltensänderungen) ([20]; 1•10^-3 mol/kg): keine Verhaltensänderungen; zentrale, vegetative und toxische Effekte (Verhaltensänderungen) ([20]; 5•10^-3 mol/kg): Ataxie, Piloerektion, Grifistärkesenkung; zentrale, vegetative und toxische Effekte (Verhaltensänderungen) ([20]; 5•10^-4 mol/kg): keine Verhaltensänderungen; IC50 ([3]; BXPC-3, up to 500 µg/ml, read-out: IC50 BxPC3): 45 µg/mL (≈ 79.1 µM); IC50 ([4]; up to 500 µg/ml): 15 µg/mL (≈ 26.4 µM); IC50 ([5]; COLO 205, up to 500 µg/ml, read-out: IC50 Colo205): 500 µg/mL (≈ 879 µM); IC50 ([6]; A-431, 200 - 12.5 µg/ml, 4 Tage, read-out: IC50 A431): 34.5 µg/mL (≈ 60.6 µM); IC50 ([7]; BXPC-3, 200 - 12.5 µg/ml, 4 Tage, read-out: IC50 BxPC3): 12.5 µg/mL (≈ 22 µM); IC50 ([8]; 200 - 12.5 µg/ml, 4 Tage): 31.5 µg/mL (≈ 55.4 µM); IC50 ([10]; HT-29, 200 - 12.5 µg/ml, 4 Tage, read-out: IC50 HT29): 34.4 µg/mL (≈ 60.5 µM); IC50 ([11]; IEC-6, 200 - 12.5 µg/ml, 4 Tage, read-out: IC50 IEC6): 17.2 µg/mL (≈ 30.2 µM); IC50 ([12]; MIA PaCa-2, 200 - 12.5 µg/ml, 4 Tage, read-out: IC50 MlAPaCa2): 400 µg/mL (≈ 703 µM); IC50 ([13]; NIH3T3, 200 - 12.5 µg/ml, 4 Tage, read-out: IC50 NIH3T3): 42.5 µg/mL (≈ 74.7 µM); IC50 ([14]; WI-38, 200 - 12.5 µg/ml, 4 Tage, read-out: IC50 WI38): 36 µg/mL (≈ 63.3 µM); IC50 ([15]; mean over cancer cell lines): 28.2 µg/mL (≈ 49.6 µM); IC50 ([16]; mean over normal cell lines): 31.9 µg/mL (≈ 56.1 µM); Wirkung auf Osteosarkome [21]: zeigen eine Wirkung |
